Key:
p110α Type Ia human PI3K = molecular target: T1, p110α Type Ia human PI3K (Homo sapiens, UniProt P42336); assay: In vitro PI3K enzyme assay (AlphaScreen), Test (a); format: biochemical; conditions: read-out: IC50 versus p110α Type Ia human PI3K
T1 construct: full length DNA of each of the p110α, p110β and […] Type Ia human PI3K p110 isoforms; 6-His; made in house
Text: The assay used AlphaScreen technology (Gray et al., Analytical Biochemistry, 2003, 313: 234-245) to determine the ability of test compounds to inhibit phosphorylation by recombinant Type I PI3K enzymes of the lipid PI(4,5)P2.
DNA fragments encoding human PI3K catalytic and regulatory subunits were isolated from cDNA libraries using standard molecular biology and PCR cloning techniques. The selected DNA fragments were used to generate baculovirus expression vectors. In particular, full length DNA of each of the p110α, p110β and […] Type Ia human PI3K p110 isoforms (EMBL Accession Nos. HSU79143, S67334, Y10055 for p110a, p110β and p110δ respectively) were sub-cloned into a pDEST10 vector (Invitrogen Limited, Fountain Drive, Paisley, UK). The vector is a Gateway-adapted version of Fastbac1 containing a 6-His epitope tag. […]
Biotinylated-DiC8-PI(3,4,5)P3 (50 nM; Cell Signals Inc., Catalogue No. 107), recombinant purified GST-Grp1 PH protein (2.5 nM) and AlphaScreen Anti-GST donor and acceptor beads (100 ng; Packard Bioscience Limited, Station Road, Pangbourne, Berkshire, UK, Catalogue No. 6760603M) were added and the assay plates were left for about 5 to 20 hours at room temperature in the dark. The resultant signals arising from laser light excitation at […] were read using a Packard AlphaQuest instrument. […]

[1] = test system: phosphorylation of Serine 473 in Akt; assay: In vitro phospho-Ser473 Akt assay in MDA-MB-468 cells, Test (c); format: cell-based; conditions: Homo sapiens, read-out: IC50, inhibition of phosphorylation of Serine 473 in Akt
Experimental: This assay determines the ability of test compounds to inhibit phosphorylation of Serine 473 in Akt as assessed using Acumen Explorer technology (TTP LabTech Limited, Royston, Herts, SG8 6EE, UK), a plate reader that can be used to rapidly quantitate features of images generated by laser-scanning.
A MDA-MB-468 human breast adenocarcinoma cell line (LGC Promochem, Teddington, Middlesex, UK, Catalogue No. HTB-132) was routinely maintained at 37° C. with 5% CO2 up to a confluency of 70-90% in DMEM containing 10% FCS and 1% L-glutamine.
For the assay, the cells were detached from the culture flask using ‘Accutase’ (Innovative Cell Technologies Inc., San Diego, Calif., USA; Catalogue No. AT104) using standard tissue culture methods and resuspended in media to give 5.5×10^4 cells per ml. Aliquots (90 μl) were seeded into each of the inner 60 wells of a black ‘Costar’ 96-well plate (Corning Inc., NY, USA; Catalogue No. 3904) to give a density of ˜5000 cells per well. Aliquots (90 μl) of culture media were placed in the outer wells to prevent edge effects. [An alternative cell handling procedure involved the maintenance of the cells in a ‘SelecT’ robotic device (The Automation Partnership, Royston, Herts SG8 5WY, UK). Cells were resuspended in media to give 5×10^4 cells per ml. Aliquots (100 μl) were seeded into the wells of a black ‘Costar’ 96-well plate.] […]

T1 sequence (P42336 whole entry, canonical isoform): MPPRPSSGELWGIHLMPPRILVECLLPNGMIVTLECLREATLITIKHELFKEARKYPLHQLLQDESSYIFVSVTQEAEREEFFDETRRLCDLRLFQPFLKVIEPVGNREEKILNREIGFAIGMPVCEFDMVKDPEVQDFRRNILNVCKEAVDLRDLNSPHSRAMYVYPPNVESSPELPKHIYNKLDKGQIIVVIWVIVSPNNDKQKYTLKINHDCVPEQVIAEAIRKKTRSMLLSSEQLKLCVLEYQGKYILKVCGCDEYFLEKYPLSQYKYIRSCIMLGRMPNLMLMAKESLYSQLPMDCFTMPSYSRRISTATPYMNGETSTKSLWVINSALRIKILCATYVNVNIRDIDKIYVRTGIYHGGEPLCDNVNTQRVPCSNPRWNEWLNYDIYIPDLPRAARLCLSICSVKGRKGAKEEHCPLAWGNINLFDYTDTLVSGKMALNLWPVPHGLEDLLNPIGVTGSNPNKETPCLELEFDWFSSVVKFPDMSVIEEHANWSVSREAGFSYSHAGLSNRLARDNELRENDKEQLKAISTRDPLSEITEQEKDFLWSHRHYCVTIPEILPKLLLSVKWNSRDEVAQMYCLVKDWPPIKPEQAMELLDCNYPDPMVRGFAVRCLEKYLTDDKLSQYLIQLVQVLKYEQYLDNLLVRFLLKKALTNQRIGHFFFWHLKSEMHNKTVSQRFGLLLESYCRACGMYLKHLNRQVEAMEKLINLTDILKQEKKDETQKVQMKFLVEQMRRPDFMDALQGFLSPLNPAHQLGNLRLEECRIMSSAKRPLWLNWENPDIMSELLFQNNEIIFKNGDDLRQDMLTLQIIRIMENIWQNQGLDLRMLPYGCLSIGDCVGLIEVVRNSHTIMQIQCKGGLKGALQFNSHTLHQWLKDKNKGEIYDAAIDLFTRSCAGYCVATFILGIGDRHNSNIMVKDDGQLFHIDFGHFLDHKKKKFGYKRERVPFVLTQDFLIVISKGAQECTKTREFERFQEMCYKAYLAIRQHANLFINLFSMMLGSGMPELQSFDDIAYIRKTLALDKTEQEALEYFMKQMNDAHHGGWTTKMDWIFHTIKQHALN
T1 sequence (P27986 whole entry partner, canonical isoform): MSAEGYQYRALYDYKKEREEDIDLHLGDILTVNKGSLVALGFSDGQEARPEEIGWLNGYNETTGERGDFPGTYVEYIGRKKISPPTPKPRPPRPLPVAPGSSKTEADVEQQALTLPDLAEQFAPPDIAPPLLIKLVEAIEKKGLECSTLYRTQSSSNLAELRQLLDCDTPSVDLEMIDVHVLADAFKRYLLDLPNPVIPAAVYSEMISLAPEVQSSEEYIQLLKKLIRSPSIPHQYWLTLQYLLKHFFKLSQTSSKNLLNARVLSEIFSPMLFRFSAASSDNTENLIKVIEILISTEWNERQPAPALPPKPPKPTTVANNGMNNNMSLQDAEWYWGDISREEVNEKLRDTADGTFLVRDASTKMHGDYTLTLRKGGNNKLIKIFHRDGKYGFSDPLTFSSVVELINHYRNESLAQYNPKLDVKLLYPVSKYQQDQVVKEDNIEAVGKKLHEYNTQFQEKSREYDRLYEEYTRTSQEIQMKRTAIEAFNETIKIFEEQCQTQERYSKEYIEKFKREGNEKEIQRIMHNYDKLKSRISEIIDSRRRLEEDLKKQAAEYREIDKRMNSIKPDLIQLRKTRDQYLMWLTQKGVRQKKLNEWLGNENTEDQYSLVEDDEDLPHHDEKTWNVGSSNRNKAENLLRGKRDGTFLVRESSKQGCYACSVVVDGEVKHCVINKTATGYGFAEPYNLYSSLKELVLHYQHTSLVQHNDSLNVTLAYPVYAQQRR

| IC50 (p110α Type Ia human PI3K) [nM] | IC50 [1] [nM] | SMILES |
| --- | --- | --- |
| ~300 | ~20 | CNCC(=O)Nc1ccc(-c2cc(N3CCOCC3)nc(-n3c(C(F)F)nc4ccccc43)n2)cc1 [Example 5, 2-(2-difluoromethylbenzimidazol-1-yl)-6-morpholino-4-(4-sarcosylaminophenyl)pyrimidine] |
| ~300 | ~100 | CN(C)CCNC(=O)c1ccc(-c2cc(N3CCOCC3)nc(-n3c(C(F)F)nc4ccccc43)n2)cc1 [Example 9, 2-(2-difluoromethylbenzimidazol-1-yl)-4-{4-[N-(2-dimethylaminoethyl)carbamoyl]phenyl}-6-morpholinopyrimidine] |

Reference: patent publication US20090325954A1, “2-BENZIMIDAZOLYL-6-MORPHOLINO-4-PHENYLPYRIMIDINE DERIVATIVES AS PI3K AND MTOR INHIBITORS FOR THE TREATMENT OF PROLIFERATIVE DISORDERS” (priority 2006, published 2009)
